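Tested at 5 concentrations; 48 h exposure; 96-well plates; endpoints linearly interpolated, else capped at highest concentration. GI50: concentration for 50% inhibition of growth.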 Calls of active or inactive are those of the source. Rule as the data show it: active = GI50 up to about 1.1 µM and inactive = higher.
Assays:
Assay in all cases: NCI tumour cell line growth inhibition, 48 h
UO-31 = system: UO-31
MCF7 = system: MCF7
TK-10 = system: TK-10
SNB-75 = system: SNB-75
IGROV-1 = system: IGROV-1
786-0 = system: 786-0
SR = system: SR
BT-549 = system: BT-549
HT-29 = system: HT-29
LOX IMVI = system: LOX IMVI
MDA-MB-435 = system: MDA-MB-435
SK-OV-3 = system: SK-OV-3
OVCAR-5 = system: OVCAR-5
DU-145 = system: DU-145
CAKI-1 = system: CAKI-1
A549 = system: A549
MDA-MB-231 = system: MDA-MB-231
MDA-N = system: MDA-N
OVCAR-3 = system: OVCAR-3
SW-620 = system: SW-620
RPMI-8226 = system: RPMI-8226
NCI-H23 = system: NCI-H23
U-251 = system: U-251
SF-268 = system: SF-268
OVCAR-8 = system: OVCAR-8
M14 = system: M14
HL-60 = system: HL-60
HCC 2998 = system: HCC 2998
NCI/ADR-RES = system: NCI/ADR-RES
HCT-116 = system: HCT-116
SK-MEL-28 = system: SK-MEL-28
Malme-3M = system: Malme-3M
SK-MEL-5 = system: SK-MEL-5
PC-3 = system: PC-3
UACC-257 = system: UACC-257
COLO 205 = system: COLO 205
HCT-15 = system: HCT-15
HOP-62 = system: HOP-62
MOLT-4 = system: MOLT-4
KM12 = system: KM12
K562 = system: K562
SF-539 = system: SF-539
EKVX = system: EKVX
Hs-578T = system: Hs-578T
UACC-62 = system: UACC-62
SNB-19 = system: SNB-19
OVCAR-4 = system: OVCAR-4
RXF 393 = system: RXF 393
SN12C = system: SN12C
CCRF-CEM = system: CCRF-CEM
SF-295 = system: SF-295
NCI-H226 = system: NCI-H226
SK-MEL-2 = system: SK-MEL-2
HOP-92 = system: HOP-92
NCI-H460 = system: NCI-H460
ACHN = system: ACHN
NCI-H522 = system: NCI-H522
A498 = system: A498

O=C(c1nsc(Cl)c1Cl)N1CCCCC1
GI50 (UO-31): 39.5 µM (inactive) | GI50 (MCF7): > 100 µM (inactive) | GI50 (TK-10): > 100 µM (inactive) | GI50 (SNB-75): > 100 µM (inactive) | GI50 (IGROV-1): > 100 µM (inactive) | GI50 (786-0): > 100 µM (inactive) | GI50 (SR): > 100 µM (inactive) | GI50 (BT-549): > 100 µM (inactive) | GI50 (HT-29): > 100 µM (inactive) | GI50 (LOX IMVI): > 100 µM (inactive) | GI50 (MDA-MB-435): > 100 µM (inactive) | GI50 (SK-OV-3): > 100 µM (inactive) | GI50 (OVCAR-5): > 100 µM (inactive) | GI50 (DU-145): > 100 µM (inactive) | GI50 (CAKI-1): > 100 µM (inactive) | GI50 (A549): > 100 µM (inactive) | GI50 (MDA-MB-231): > 100 µM (inactive) | GI50 (MDA-N): > 100 µM (inactive) | GI50 (OVCAR-3): > 100 µM (inactive) | GI50 (SW-620): > 100 µM (inactive) | GI50 (RPMI-8226): > 100 µM (inactive) | GI50 (NCI-H23): > 100 µM (inactive) | GI50 (U-251): > 100 µM (inactive) | GI50 (SF-268): > 100 µM (inactive) | GI50 (OVCAR-8): > 100 µM (inactive) | GI50 (M14): > 100 µM (inactive) | GI50 (HL-60): > 100 µM (inactive) | GI50 (HCC 2998): > 100 µM (inactive) | GI50 (NCI/ADR-RES): > 100 µM (inactive) | GI50 (HCT-116): > 100 µM (inactive) | GI50 (SK-MEL-28): > 100 µM (inactive) | GI50 (Malme-3M): > 100 µM (inactive) | GI50 (SK-MEL-5): > 100 µM (inactive) | GI50 (PC-3): > 100 µM (inactive) | GI50 (UACC-257): > 100 µM (inactive) | GI50 (COLO 205): > 100 µM (inactive) | GI50 (HCT-15): > 100 µM | GI50 (HOP-62): > 100 µM (inactive) | GI50 (MOLT-4): > 100 µM (inactive) | GI50 (KM12): > 100 µM (inactive) | GI50 (K562): > 100 µM (inactive) | GI50 (SF-539): > 100 µM (inactive) | GI50 (EKVX): > 100 µM (inactive) | GI50 (Hs-578T): > 100 µM (inactive) | GI50 (UACC-62): > 100 µM (inactive) | GI50 (SNB-19): 82.8 µM (inactive) | GI50 (OVCAR-4): > 100 µM (inactive) | GI50 (RXF 393): > 100 µM (inactive) | GI50 (SN12C): > 100 µM (inactive) | GI50 (CCRF-CEM): > 100 µM (inactive) | GI50 (SF-295): > 100 µM (inactive) | GI50 (NCI-H226): > 100 µM (inactive)

CCC(=O)OCN1C(=O)C=CC1=O
GI50 (UO-31): 7.91 µM (inactive) | GI50 (MCF7): 20.1 µM (inactive) | GI50 (TK-10): 6.21 µM (inactive) | GI50 (IGROV-1): 18.4 µM (inactive) | GI50 (786-0): 5.38 µM (inactive) | GI50 (BT-549): 18.5 µM (inactive) | GI50 (SK-MEL-2): 15.7 µM (inactive) | GI50 (HT-29): 17.9 µM (inactive) | GI50 (LOX IMVI): 18.5 µM (inactive) | GI50 (MDA-MB-435): 15.2 µM (inactive) | GI50 (SK-OV-3): > 43.1 µM (inactive) | GI50 (OVCAR-5): 18.2 µM (inactive) | GI50 (DU-145): 16.6 µM (inactive) | GI50 (CAKI-1): 5.08 µM (inactive) | GI50 (A549): 18.7 µM (inactive) | GI50 (MDA-MB-231): 18.7 µM (inactive) | GI50 (MDA-N): 16.9 µM (inactive) | GI50 (OVCAR-3): 7.16 µM (inactive) | GI50 (SW-620): 2.01 µM (inactive) | GI50 (HOP-92): 15.2 µM (inactive) | GI50 (NCI-H23): 18 µM (inactive) | GI50 (U-251): 17.6 µM (inactive) | GI50 (SF-268): 17.1 µM (inactive) | GI50 (OVCAR-8): 18.3 µM (inactive) | GI50 (M14): 18.3 µM (inactive) | GI50 (HL-60): 7.19 µM (inactive) | GI50 (HCC 2998): 18.6 µM (inactive) | GI50 (NCI/ADR-RES): 24 µM (inactive) | GI50 (HCT-116): 16.2 µM (inactive) | GI50 (NCI-H460): 18.6 µM (inactive) | GI50 (SK-MEL-28): 18.6 µM (inactive) | GI50 (Malme-3M): 13.8 µM (inactive) | GI50 (SK-MEL-5): 27.5 µM (inactive) | GI50 (PC-3): 17.1 µM (inactive) | GI50 (UACC-257): 9.06 µM (inactive) | GI50 (COLO 205): 4.28 µM (inactive) | GI50 (HCT-15): 22.9 µM | GI50 (HOP-62): 17.8 µM (inactive) | GI50 (MOLT-4): 2.3 µM (inactive) | GI50 (KM12): 16.7 µM (inactive) | GI50 (ACHN): 8.2 µM (inactive) | GI50 (K562): 3.26 µM (inactive) | GI50 (NCI-H522): 1.91 µM (inactive) | GI50 (SF-539): 18.3 µM (inactive) | GI50 (A498): > 44.5 µM (inactive) | GI50 (EKVX): 19.8 µM (inactive) | GI50 (Hs-578T): 10.1 µM (inactive) | GI50 (UACC-62): 17 µM (inactive) | GI50 (SNB-19): 18.5 µM (inactive) | GI50 (OVCAR-4): 17.6 µM (inactive) | GI50 (RXF 393): 16.2 µM (inactive) | GI50 (SN12C): 18.4 µM (inactive) | GI50 (CCRF-CEM): 0.445 µM (active) | GI50 (SF-295): > 44.7 µM (inactive) | GI50 (NCI-H226): 41.9 µM (inactive)

CCCNC(=O)Nc1ccc2c(c1)Cc1cc(N(CCCl)CCCl)ccc1-2
GI50 (UO-31): 17.4 µM (inactive) | GI50 (MCF7): 8.73 µM (inactive) | GI50 (TK-10): 61.9 µM (inactive) | GI50 (IGROV-1): 14.1 µM (inactive) | GI50 (786-0): 34.6 µM (inactive) | GI50 (SR): 1.32 µM (inactive) | GI50 (BT-549): 22 µM (inactive) | GI50 (SK-MEL-2): 29.2 µM (inactive) | GI50 (HT-29): 3.24 µM (inactive) | GI50 (LOX IMVI): 12.2 µM (inactive) | GI50 (MDA-MB-435): 21.1 µM (inactive) | GI50 (OVCAR-5): 76 µM (inactive) | GI50 (DU-145): 14.6 µM (inactive) | GI50 (CAKI-1): 22.4 µM (inactive) | GI50 (A549): 23.9 µM (inactive) | GI50 (MDA-MB-231): 28.4 µM (inactive) | GI50 (OVCAR-3): 22.1 µM (inactive) | GI50 (SW-620): 28.6 µM (inactive) | GI50 (RPMI-8226): 25.4 µM (inactive) | GI50 (HOP-92): 25.2 µM (inactive) | GI50 (NCI-H23): 36.1 µM (inactive) | GI50 (U-251): 18 µM (inactive) | GI50 (SF-268): 21.8 µM (inactive) | GI50 (OVCAR-8): 26.9 µM (inactive) | GI50 (M14): 79.4 µM (inactive) | GI50 (HL-60): 5.94 µM (inactive) | GI50 (HCC 2998): 28.2 µM (inactive) | GI50 (NCI/ADR-RES): 36.2 µM (inactive) | GI50 (HCT-116): 49.9 µM (inactive) | GI50 (NCI-H460): 7.16 µM (inactive) | GI50 (SK-MEL-28): 11.5 µM (inactive) | GI50 (Malme-3M): 36 µM (inactive) | GI50 (SK-MEL-5): 13.7 µM (inactive) | GI50 (PC-3): 25.2 µM (inactive) | GI50 (UACC-257): 41.7 µM (inactive) | GI50 (COLO 205): 8.32 µM (inactive) | GI50 (HCT-15): 16.5 µM | GI50 (HOP-62): 81.5 µM (inactive) | GI50 (KM12): 22 µM (inactive) | GI50 (ACHN): 5.47 µM (inactive) | GI50 (K562): 10.9 µM (inactive) | GI50 (NCI-H522): 17.6 µM (inactive) | GI50 (SF-539): 5.53 µM (inactive) | GI50 (A498): 10.6 µM (inactive) | GI50 (EKVX): 18.6 µM (inactive) | GI50 (Hs-578T): 25.6 µM (inactive) | GI50 (UACC-62): 21.9 µM (inactive) | GI50 (SNB-19): 19.2 µM (inactive) | GI50 (RXF 393): 15.5 µM (inactive) | GI50 (SN12C): 33 µM (inactive) | GI50 (CCRF-CEM): 58.3 µM (inactive) | GI50 (SF-295): 14.2 µM (inactive)
